In brackets after ≈: the same amount, converted by molar mass.

The assay has as its system P388. As to the kind of experiment: Cytotoxicity against mouse P388 cells. The format is functional, cell-based.
With `C=C(CC[C@@H](C)[C@H]1CC[C@H]2C3=C[C@@H](OC(C)=O)[C@@]4(O)C[C@@H](OC(C)=O)CC[C@]4(C)[C@@]3(O)[C@H](OC(C)=O)C[C@]12C)C(C)C`, the half-maximal inhibitory concentration (IC50) – broadly, the concentration that inhibits the measured activity by half – is 6.5 µg/mL (≈ 11 µM). Under `C=C(CC[C@@H](C)[C@H]1CC[C@H]2C3=C[C@@H](OC(C)=O)[C@@]4(O)C[C@@H](OC(C)=O)CC[C@]4(C)[C@H]3CC[C@]12C)C(C)C` stands 1.46 µg/mL (≈ 2.84 µM); under `C=C(CC[C@@H](C)[C@H]1CC[C@H]2C3=C[C@H](OC(C)=O)[C@@]4(O)C[C@@H](OC(C)=O)CC[C@]4(C)[C@@]3(O)[C@H](OC(C)=O)C[C@]12C)C(C)C`, 4.78 µg/mL (≈ 8.12 µM).

(Values after ChEMBL document CHEMBL1158935, “New Polyhydroxy Sterols, Dysidamides, and a Dideoxyhexose from the Sponge Dysidea herbacea” (J Nat Prod, 1991).)
